According to paper PMC12454493, “Insight on novel sulfamoylphenyl pyrazole derivatives as anticancer carbonic anhydrase inhibitors” (Molecular Diversity, 2024):
Where “and” joins values, the source holds several entries; their conditions need not be identical. Identical values can stand only once.

Experiments:
hCA XII = hCA XII (Homo sapiens, UniProt O43570); experiment: CA inhibitory activity, spectrophotometric p-NPA assay; assay type: biochemical; details: p-NPA substrate, pH 7.5, 25 °C, triplicate; read-out: IC50 (µM) ± SD hCA XII
Chain of hCA XII (O43570 25-354): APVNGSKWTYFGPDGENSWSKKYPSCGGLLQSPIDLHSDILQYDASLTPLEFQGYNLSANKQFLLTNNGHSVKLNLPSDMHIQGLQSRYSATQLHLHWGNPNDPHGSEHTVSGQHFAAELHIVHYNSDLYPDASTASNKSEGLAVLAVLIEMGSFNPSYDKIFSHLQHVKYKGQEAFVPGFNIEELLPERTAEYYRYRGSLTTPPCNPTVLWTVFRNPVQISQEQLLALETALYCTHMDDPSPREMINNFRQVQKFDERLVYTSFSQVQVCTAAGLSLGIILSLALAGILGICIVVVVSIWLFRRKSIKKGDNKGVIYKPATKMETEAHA

DU-145 = experiment: NCI-60 one-dose SRB screen (Prostate Cancer); assay type: cell-based; details: Homo sapiens, single dose 10 µM, 48 h, read-out: Growth inhibition percent (GI %)
PC-3 = experiment: NCI-60 one-dose SRB screen (Prostate Cancer); assay type: cell-based; details: Homo sapiens, single dose 10 µM, 48 h, read-out: Growth inhibition percent (GI %)
RPMI-8226 = experiment: NCI-60 one-dose SRB screen (Leukemia); assay type: cell-based; details: Homo sapiens, single dose 10 µM, 48 h, read-out: Growth inhibition percent (GI %)
K-562 = experiment: NCI-60 one-dose SRB screen (Leukemia); assay type: cell-based; details: Homo sapiens, K562, single dose 10 µM, 48 h, read-out: Growth inhibition percent (GI %)
CCRF-CEM = experiment: NCI-60 one-dose SRB screen (Leukemia); assay type: cell-based; details: Homo sapiens, single dose 10 µM, 48 h, read-out: Growth inhibition percent (GI %)
HL-60(TB) = experiment: NCI-60 one-dose SRB screen (Leukemia); assay type: cell-based; details: Homo sapiens, single dose 10 µM, 48 h, read-out: Growth inhibition percent (GI %)
SR = experiment: NCI-60 one-dose SRB screen (Leukemia); assay type: cell-based; details: Homo sapiens, single dose 10 µM, 48 h, read-out: Growth inhibition percent (GI %)
MOLT-4 = experiment: NCI-60 one-dose SRB screen (Leukemia); assay type: cell-based; details: Homo sapiens, single dose 10 µM, 48 h, read-out: Growth inhibition percent (GI %)
UO-31 = experiment: NCI-60 one-dose SRB screen (Renal Cancer); assay type: cell-based; details: Homo sapiens, single dose 10 µM, 48 h, read-out: Growth inhibition percent (GI %)
RXF 393 = experiment: NCI-60 one-dose SRB screen (Renal Cancer); assay type: cell-based; details: Homo sapiens, single dose 10 µM, 48 h, read-out: Growth inhibition percent (GI %)
ACHN = experiment: NCI-60 one-dose SRB screen (Renal Cancer); assay type: cell-based; details: Homo sapiens, single dose 10 µM, 48 h, read-out: Growth inhibition percent (GI %)
TK-10 = experiment: NCI-60 one-dose SRB screen (Renal Cancer); assay type: cell-based; details: Homo sapiens, single dose 10 µM, 48 h, read-out: Growth inhibition percent (GI %)
786-0 = experiment: NCI-60 one-dose SRB screen (Renal Cancer); assay type: cell-based; details: Homo sapiens, single dose 10 µM, 48 h, read-out: Growth inhibition percent (GI %)
A498 = experiment: NCI-60 one-dose SRB screen (Renal Cancer); assay type: cell-based; details: Homo sapiens, single dose 10 µM, 48 h, read-out: Growth inhibition percent (GI %)
SN12C = experiment: NCI-60 one-dose SRB screen (Renal Cancer); assay type: cell-based; details: Homo sapiens, single dose 10 µM, 48 h, read-out: Growth inhibition percent (GI %)
CAKI-1 = experiment: NCI-60 one-dose SRB screen (Renal Cancer); assay type: cell-based; details: Homo sapiens, single dose 10 µM, 48 h, read-out: Growth inhibition percent (GI %)
SK-MEL-5 = experiment: NCI-60 one-dose SRB screen (Melanoma); assay type: cell-based; details: Homo sapiens, single dose 10 µM, 48 h, read-out: Growth inhibition percent (GI %)
SK-MEL-28 = experiment: NCI-60 one-dose SRB screen (Melanoma); assay type: cell-based; details: Homo sapiens, single dose 10 µM, 48 h, read-out: Growth inhibition percent (GI %)
UACC-257 = experiment: NCI-60 one-dose SRB screen (Melanoma); assay type: cell-based; details: Homo sapiens, single dose 10 µM, 48 h, read-out: Growth inhibition percent (GI %)
MALME-3M = experiment: NCI-60 one-dose SRB screen (Melanoma); assay type: cell-based; details: Homo sapiens, single dose 10 µM, 48 h, read-out: Growth inhibition percent (GI %)
UACC-62 = experiment: NCI-60 one-dose SRB screen (Melanoma); assay type: cell-based; details: Homo sapiens, single dose 10 µM, 48 h, read-out: Growth inhibition percent (GI %)
M14 = experiment: NCI-60 one-dose SRB screen (Melanoma); assay type: cell-based; details: Homo sapiens, single dose 10 µM, 48 h, read-out: Growth inhibition percent (GI %)
hCA IX = hCA IX (Homo sapiens, UniProt Q16790); experiment: CA inhibitory activity, spectrophotometric p-NPA assay; assay type: biochemical; details: p-NPA substrate, pH 7.5, 25 °C, triplicate; read-out: IC50 (µM) ± SD hCA IX
A549/ATCC = experiment: NCI-60 one-dose SRB screen (Non-Small Cell Lung Cancer); assay type: cell-based; details: Homo sapiens, single dose 10 µM, 48 h, read-out: Growth inhibition percent (GI %)
NCI-H460 = experiment: as above; assay type: cell-based; details: Homo sapiens, single dose 10 µM, 48 h, read-out: Growth inhibition percent (GI %)
NCI-H226 = experiment: as above; assay type: cell-based; details: Homo sapiens, single dose 10 µM, 48 h, read-out: Growth inhibition percent (GI %)
HOP-62 = experiment: as above; assay type: cell-based; details: Homo sapiens, single dose 10 µM, 48 h, read-out: Growth inhibition percent (GI %)
NCI-H23 = experiment: as above; assay type: cell-based; details: Homo sapiens, single dose 10 µM, 48 h, read-out: Growth inhibition percent (GI %)
HOP-92 = experiment: as above; assay type: cell-based; details: Homo sapiens, single dose 10 µM, 48 h, read-out: Growth inhibition percent (GI %)
NCI-H322M = experiment: as above; assay type: cell-based; details: Homo sapiens, single dose 10 µM, 48 h, read-out: Growth inhibition percent (GI %)
NCI-H522 = experiment: as above; assay type: cell-based; details: Homo sapiens, single dose 10 µM, 48 h, read-out: Growth inhibition percent (GI %)
EKVX = experiment: as above; assay type: cell-based; details: Homo sapiens, single dose 10 µM, 48 h, read-out: Growth inhibition percent (GI %)
KM12 = experiment: NCI-60 one-dose SRB screen (Colon Cancer); assay type: cell-based; details: Homo sapiens, single dose 10 µM, 48 h, read-out: Growth inhibition percent (GI %)
HCT-15 = experiment: NCI-60 one-dose SRB screen (Colon Cancer); assay type: cell-based; details: Homo sapiens, single dose 10 µM, 48 h, read-out: Growth inhibition percent (GI %)
SW-620 = experiment: NCI-60 one-dose SRB screen (Colon Cancer); assay type: cell-based; details: Homo sapiens, single dose 10 µM, 48 h, read-out: Growth inhibition percent (GI %)
HCT-116 = experiment: NCI-60 one-dose SRB screen (Colon Cancer); assay type: cell-based; details: Homo sapiens, single dose 10 µM, 48 h, read-out: Growth inhibition percent (GI %)
HT29 = experiment: NCI-60 one-dose SRB screen (Colon Cancer); assay type: cell-based; details: Homo sapiens, HT-29, single dose 10 µM, 48 h, read-out: Growth inhibition percent (GI %)
HCC-2998 = experiment: NCI-60 one-dose SRB screen (Colon Cancer); assay type: cell-based; details: Homo sapiens, single dose 10 µM, 48 h, read-out: Growth inhibition percent (GI %)
COLO 205 = experiment: NCI-60 one-dose SRB screen (Colon Cancer); assay type: cell-based; details: Homo sapiens, single dose 10 µM, 48 h, read-out: Growth inhibition percent (GI %)
SF-268 = experiment: NCI-60 one-dose SRB screen (CNS Cancer); assay type: cell-based; details: Homo sapiens, single dose 10 µM, 48 h, read-out: Growth inhibition percent (GI %)
U251 = experiment: NCI-60 one-dose SRB screen (CNS Cancer); assay type: cell-based; details: Homo sapiens, U-251, single dose 10 µM, 48 h, read-out: Growth inhibition percent (GI %)
SF-295 = experiment: NCI-60 one-dose SRB screen (CNS Cancer); assay type: cell-based; details: Homo sapiens, single dose 10 µM, 48 h, read-out: Growth inhibition percent (GI %)
SF-539 = experiment: NCI-60 one-dose SRB screen (CNS Cancer); assay type: cell-based; details: Homo sapiens, single dose 10 µM, 48 h, read-out: Growth inhibition percent (GI %)
SNB-75 = experiment: NCI-60 one-dose SRB screen (CNS Cancer); assay type: cell-based; details: Homo sapiens, single dose 10 µM, 48 h, read-out: Growth inhibition percent (GI %)
SNB-19 = experiment: NCI-60 one-dose SRB screen (CNS Cancer); assay type: cell-based; details: Homo sapiens, single dose 10 µM, 48 h, read-out: Growth inhibition percent (GI %)

SMILES: COc1ccc(-c2nn(-c3ccc(S(N)(=O)=O)cc3)cc2C(=O)OCC(=O)Nc2ccc(S(N)(=O)=O)cc2)cc1 [Compound 4c, 2-Oxo-2-[(4-sulfamoylphenyl)amino] ethyl 3-(4-methoxyphenyl)-1-(4-sulfamoylphenyl)-1H-pyrazole-4-carboxylate]
- IC50 (hCA XII): 0.41 µM and 0.415 µM
- inhibition at 10 µM (DU-145): < 5%
- inhibition at 10 µM (PC-3): 8.81%
- inhibition at 10 µM (RPMI-8226): 9.19%
- inhibition at 10 µM (K-562): 9.61%
- inhibition at 10 µM (CCRF-CEM): < 5%
- inhibition at 10 µM (HL-60(TB)): 13.9%
- inhibition at 10 µM (SR): < 5%
- inhibition at 10 µM (MOLT-4): < 5%
- inhibition at 10 µM (UO-31): 11.9%
- inhibition at 10 µM (RXF 393): < 5%
- inhibition at 10 µM (ACHN): < 5%
- inhibition at 10 µM (TK-10): < 5%
- inhibition at 10 µM (786-0): 28.9%
- inhibition at 10 µM (A498): < 5%
- inhibition at 10 µM (SN12C): < 5%
- inhibition at 10 µM (CAKI-1): 8.36%
- inhibition at 10 µM (SK-MEL-5): < 5%
- inhibition at 10 µM (SK-MEL-28): < 5%
- inhibition at 10 µM (UACC-257): < 5%
- inhibition at 10 µM (MALME-3M): < 5%
- inhibition at 10 µM (UACC-62): < 5%
- inhibition at 10 µM (M14): 43.3%
- IC50 (hCA IX): 0.17 µM and 0.175 µM
- inhibition at 10 µM (A549/ATCC): < 5%
- inhibition at 10 µM (NCI-H460): < 5%
- inhibition at 10 µM (NCI-H226): < 5%
- inhibition at 10 µM (HOP-62): < 5%
- inhibition at 10 µM (NCI-H23): < 5%
- inhibition at 10 µM (HOP-92): < 5%
- inhibition at 10 µM (NCI-H322M): < 5%
- inhibition at 10 µM (NCI-H522): < 5%
- inhibition at 10 µM (EKVX): < 5%
- inhibition at 10 µM (KM12): < 5%
- inhibition at 10 µM (HCT-15): < 5%
- inhibition at 10 µM (SW-620): < 5%
- inhibition at 10 µM (HCT-116): 37.5%
- inhibition at 10 µM (HT29): < 5%
- inhibition at 10 µM (HCC-2998): < 5%
- inhibition at 10 µM (COLO 205): < 5%
- inhibition at 10 µM (SF-268): < 5%
- inhibition at 10 µM (U251): < 5%
- inhibition at 10 µM (SF-295): < 5%
- inhibition at 10 µM (SF-539): < 5%
- inhibition at 10 µM (SNB-75): 28.7%
- inhibition at 10 µM (SNB-19): < 5%

SMILES: NS(=O)(=O)c1ccc(NC(=O)COC(=O)c2cn(-c3ccc(S(N)(=O)=O)cc3)nc2-c2ccc(Br)cc2)cc1 [Compound 4d, 2-Oxo-2-[(4-sulfamoylphenyl)amino] ethyl 3-(4-bromophenyl)-1-(4-sulfamoylphenyl)-1H-pyrazole-4-carboxylate]
- IC50 (hCA XII): 0.81 µM and 0.814 µM
- inhibition at 10 µM (DU-145): < 5%
- inhibition at 10 µM (PC-3): 23.1%
- inhibition at 10 µM (RPMI-8226): < 5%
- inhibition at 10 µM (K-562): 82.5%
- inhibition at 10 µM (CCRF-CEM): 60.2%
- inhibition at 10 µM (HL-60(TB)): 37.6%
- inhibition at 10 µM (SR): 22.9%
- inhibition at 10 µM (MOLT-4): 60.1%
- inhibition at 10 µM (UO-31): 23.2%
- inhibition at 10 µM (RXF 393): < 5%
- inhibition at 10 µM (ACHN): < 5%
- inhibition at 10 µM (TK-10): < 5%
- inhibition at 10 µM (786-0): 86.5%
- inhibition at 10 µM (A498): 16.8%
- inhibition at 10 µM (SN12C): 11.8%
- inhibition at 10 µM (CAKI-1): 63.5%
- inhibition at 10 µM (SK-MEL-5): 14.3%
- inhibition at 10 µM (SK-MEL-28): < 5%
- inhibition at 10 µM (UACC-257): < 5%
- inhibition at 10 µM (MALME-3M): < 5%
- inhibition at 10 µM (UACC-62): 11.9%
- inhibition at 10 µM (M14): 79.6%
- IC50 (hCA IX): 0.5 µM and 0.509 µM
- inhibition at 10 µM (A549/ATCC): < 5%
- inhibition at 10 µM (NCI-H460): < 5%
- inhibition at 10 µM (NCI-H226): < 5%
- inhibition at 10 µM (HOP-62): < 5%
- inhibition at 10 µM (NCI-H23): < 5%
- inhibition at 10 µM (HOP-92): 49.6%
- inhibition at 10 µM (NCI-H322M): 21.5%
- inhibition at 10 µM (NCI-H522): 19.8%
- inhibition at 10 µM (EKVX): 21%
- inhibition at 10 µM (KM12): < 5%
- inhibition at 10 µM (HCT-15): 10.6%
- inhibition at 10 µM (SW-620): < 5%
- inhibition at 10 µM (HCT-116): 84.6%
- inhibition at 10 µM (HT29): < 5%
- inhibition at 10 µM (HCC-2998): < 5%
- inhibition at 10 µM (COLO 205): 8.46%
- inhibition at 10 µM (SF-268): 34.8%
- inhibition at 10 µM (U251): 25%
- inhibition at 10 µM (SF-295): < 5%
- inhibition at 10 µM (SF-539): 26.7%
- inhibition at 10 µM (SNB-75): 64.3%
- inhibition at 10 µM (SNB-19): 24.1%
